The results in this text go back to ChEMBL document CHEMBL1201862, “PubChem BioAssay data set” (2004).

What all share (assay): NCI anticancer screen, dose series, 48 h
In test [1] the test system is TK-10.
Test [2] has as its system OVCAR-4.
Test [3] concerns HT-29.
Test [4] deals with A549.
For test [5], the system named is MDA-MB-435.
The subject of test [6] is CAKI-1.
Test [7] has as its system HL-60.
Test [8] concerns SF-295.
In test [9] the test system is MDA-MB-231.
For test [10], the system named is A498.
In test [11] the test system is M14.
Test [12] has as its system 786-0.
For test [13], the system named is LOX IMVI.
Test [14] concerns RPMI-8226.
Test [15] has as its system MOLT-4.
Test [16] relates to SK-MEL-2.
Test [17] has as its system Hs-578T.
Test [18] deals with HOP-92.
Test [19] concerns NCI-H226.

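Compound exposure: 48 hours, 5 concentrations, 96-well plates. Here, GI50 denotes the concentration required for 50% inhibition of growth.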 Calls of active or inactive are those of the source. Cut-off read from the data, not from the text of the source: active = GI50 up to about 1.1 µM and inactive = higher. A value given as a limit tells only on which side of the number the result lay.

With `CC(=O)c1c(C)[n+]([O-])c2cc(Cl)c(Cl)cc2[n+]1[O-]`, the GI50 in [1] is 16.9 µM (inactive); in test [2], 15.6 µM (inactive); in test [3] it was 18.5 µM (inactive); in [4], 19.2 µM (inactive); in test [5], 21.3 µM (inactive); in test [6], 18.7 µM (inactive). The GI50 in [7] was 10.4 µM (inactive); in [8], 26.5 µM (inactive); in test [9], 22.1 µM (inactive); in test [10], 23.7 µM (inactive); in test [11], 24.6 µM (inactive); in [12], 27.5 µM (inactive). The GI50 was 16.8 µM (inactive) in test [13]; 5.5 µM (inactive) in test [14]; 8.22 µM (inactive) in [15]; 27.6 µM (inactive) in test [16]; 20.7 µM (inactive) in test [17].
With `O=C1CC(Br)c2c(Cl)sc(Cl)c21` (centres undefined), the GI50 in test [1] was 2.54 µM (inactive); in [18], 15.1 µM (inactive); in [3] it was 11.4 µM (inactive); in [4], 18.3 µM (inactive); in test [5], 2.39 µM (inactive); in [6], 3.1 µM (inactive). The GI50 in test [7] was 2.13 µM (inactive); in test [8] it was 16.4 µM (inactive); in test [9] it was 9.98 µM (inactive); in [10], 20.3 µM (inactive); in test [11], 9.75 µM (inactive); in test [12], 3.04 µM (inactive). For the same compound, the GI50 in test [13] was 1.94 µM (inactive); in test [14], 1.43 µM (inactive); in [15] it was 1.94 µM (inactive); in test [16] it was 15.8 µM (inactive); in [17] it was 16.5 µM (inactive).
Take `CC(C)c1ccc2c(c1)/C(=C1/Nc3ccccc3/C1=N/O)C(=O)N2`: the GI50 in [1] is 9.4 µM (inactive); in [2] it was 4.32 µM (inactive); in test [3] it was 4.69 µM (inactive); in [4], 6.28 µM (inactive); in [5] it was 7.38 µM (inactive); in test [6] it was 4.29 µM (inactive). The GI50 in test [8] is 2.13 µM (inactive); in test [9] it was 15.3 µM (inactive); in test [10], 2.78 µM (inactive); in [19], 10.8 µM (inactive); in test [11], 11.5 µM (inactive); in test [12], 4.85 µM (inactive). Further, the GI50 in [13] is 5.07 µM (inactive); in test [14], 4.17 µM (inactive); in test [15] it was 3.3 µM (inactive); in [16] it was 3.9 µM (inactive); in test [17], 4.76 µM (inactive).
For the compound `CC(C)Cc1cnc(CC(C)C)c(=O)[nH]1`, the GI50 in [1], in test [2], in test [18], in [3], in [4] and in [5] was > 100 µM (inactive) each time. For the same compound, the GI50 in [6], in test [8], in test [9], in test [10], in test [11] and in test [12] was > 100 µM (inactive) each time. Also, the GI50 in test [13] is > 100 µM (inactive); in test [14], 0.705 µM (active); in test [15], > 100 µM (inactive); in test [16] it was > 100 µM (inactive); in test [17], > 100 µM (inactive).
On to `CC1(C)C=[N+]([O-])C(C)(C)N1`, for which the GI50 in [1], in test [2], in test [18], in test [3], in test [4] and in [5] was > 100 µM (inactive) each time. In addition, the GI50 in [6], in test [7], in test [8], in test [9], in test [19] and in test [11] was > 100 µM (inactive) each time. In addition, the GI50 in test [12], in test [13], in test [14], in test [15], in [16] and in [17] was > 100 µM (inactive) throughout.
`O=C1CS(=O)(=O)C(c2cccc(Oc3ccccc3)c2)N1c1cc(Cl)ccc1Cl` (centres undefined): the GI50 is 30.1 µM (inactive) in [1]; 18.2 µM (inactive) in [18]; 20 µM (inactive) in test [3]; 38.2 µM (inactive) in test [4]; 12.1 µM (inactive) in test [5]; 34.2 µM (inactive) in test [7]. Further, the GI50 in test [8] was 22.9 µM (inactive); in test [9], 17.5 µM (inactive); in test [19], 19.2 µM (inactive); in [11] it was 20.4 µM (inactive); in test [12] it was 19.2 µM (inactive); in [13], 14 µM (inactive). Besides, the GI50 in test [15] was 39.3 µM (inactive); in test [16] it was 14.4 µM (inactive); in test [17] it was 33.3 µM (inactive).
`Clc1ccc(CCN(CCc2ccc(Cl)c(Cl)c2)CCN2CCCC2)cc1Cl`: the GI50 in test [1] is 1.78 µM (inactive); in test [2] it was 1.85 µM (inactive); in [3] it was 1.68 µM (inactive); in test [4] it was 1.74 µM (inactive); in [5], 1.44 µM (inactive); in [6] it was 1.64 µM (inactive). The GI50 is 1.39 µM (inactive) in test [7]; 1.78 µM (inactive) in [8]; 1.56 µM (inactive) in test [9]; 1.77 µM (inactive) in test [10]; 1.67 µM (inactive) in test [19]; 1.67 µM (inactive) in test [11]. Further, the GI50 in test [12] is 1.76 µM (inactive); in test [13] it was 1.6 µM (inactive); in [14], 2.16 µM (inactive); in test [15], 1.79 µM (inactive); in [16], 1.67 µM (inactive); in test [17], 1.9 µM (inactive).
Turning to `NC(Cc1ccc2nc3c4ccccc4c(=O)cc-3oc2c1)C(=O)O` (centres undefined), the GI50 in test [1] is > 100 µM (inactive); in test [2], > 100 µM (inactive); in test [18], > 100 µM (inactive); in [3] it was 71.3 µM (inactive); in [4], 44.2 µM (inactive); in [5], 18.2 µM (inactive). Moreover, the GI50 in [6] was > 100 µM (inactive); in test [7], > 100 µM (inactive); in test [8], > 100 µM (inactive); in test [9], > 100 µM (inactive); in test [11] it was 25.3 µM (inactive); in [12] it was > 100 µM (inactive). Also, the GI50 in test [13] was 45.8 µM (inactive); in test [14], > 100 µM (inactive); in [16], 53.3 µM (inactive); in test [17] it was 56.1 µM (inactive).
Consider `Cc1cccc2c(N)c3cccc(C(=O)NCC[N+](C)(C)[O-])c3nc12`, for which the GI50 in test [1] is 21.8 µM (inactive); in test [2] it was 10.3 µM (inactive); in test [18], 10.5 µM (inactive); in test [3], 6.01 µM (inactive); in [4], 1.24 µM (inactive); in [5], 16.8 µM (inactive). The GI50 in test [6] was 3.42 µM (inactive); in test [7], 4.05 µM (inactive); in [8], 6.76 µM (inactive); in test [9] it was 20.4 µM (inactive); in [19], 3.05 µM (inactive); in test [11], 19.2 µM (inactive). Further, the GI50 in test [12] was 2.46 µM (inactive); in test [13], 10.4 µM (inactive); in test [14], 9.44 µM (inactive); in [15] it was 0.542 µM (active); in [16], 67.5 µM (inactive); in test [17] it was 5.37 µM (inactive).
As to `COc1ccccc1-n1cnc2c1=NC(C)(C)NC=2C(N)=O`, the GI50 in test [1], in test [2], in test [3], in [4], in test [5] and in [6] was > 100 µM (inactive) in each case. Besides, the GI50 in test [7], in test [8], in test [9], in test [10], in test [19] and in test [11] was > 100 µM (inactive) in each case. The GI50 in test [12], in test [13], in test [14], in test [16] and in test [17] was > 100 µM (inactive) throughout.
For the compound `CCOC(=O)C(O)Cc1cnc2ccccc2n1` (centres undefined), the GI50 in test [1], in [2], in test [18], in [3], in test [4] and in test [5] was > 100 µM (inactive) in each case. In addition, the GI50 in test [6], in test [9], in [10], in test [11], in [12] and in test [13] was > 100 µM (inactive) each time. For the same compound, the GI50 in test [14], in [15], in test [16] and in [17] was > 100 µM (inactive) throughout.
Take `OB1OCc2ccccc21` [BENZOXABOROLE]: the GI50 was 38.9 µM (inactive) in test [1]; 32.4 µM (inactive) in test [2]; 26.7 µM (inactive) in [3]; 33.8 µM (inactive) in test [4]; 35.9 µM (inactive) in [5]; 34.7 µM (inactive) in test [6]. Further, the GI50 in test [7] was > 100 µM (inactive); in [8], 12.1 µM (inactive); in test [9], 77.1 µM (inactive); in test [10], 34.5 µM (inactive); in [19], 39.5 µM (inactive); in test [11], 55.3 µM (inactive). Besides, the GI50 was 39.7 µM (inactive) in [12]; 39 µM (inactive) in [13]; 18.2 µM (inactive) in test [14]; 69.8 µM (inactive) in test [15]; 37.2 µM (inactive) in test [16]; 62.1 µM (inactive) in test [17].
